# Laboratory results taken from ChEMBL document CHEMBL4340547, “Synthesis and SAR development of quinoline analogs as novel P2X7 receptor antagonists” (Bioorg Med Chem Lett, 2019).
# Key:
# [1] = Protein binding in mouse plasma; type: ADME, cell-free; conditions: read-out: PPB
# [2] = molecular target: T1, P2X purinoceptor 7 (Rattus norvegicus, UniProt Q64663); test: Antagonist activity at rat P2X7 receptor assessed as inhibition of BzATP-induced YO PRO dye uptake preincubated for 20 mins followed by YO PRO dye and BzATP addition measured after 30 mins by fluorescence assay
# T1 sequence (Q64663 whole entry): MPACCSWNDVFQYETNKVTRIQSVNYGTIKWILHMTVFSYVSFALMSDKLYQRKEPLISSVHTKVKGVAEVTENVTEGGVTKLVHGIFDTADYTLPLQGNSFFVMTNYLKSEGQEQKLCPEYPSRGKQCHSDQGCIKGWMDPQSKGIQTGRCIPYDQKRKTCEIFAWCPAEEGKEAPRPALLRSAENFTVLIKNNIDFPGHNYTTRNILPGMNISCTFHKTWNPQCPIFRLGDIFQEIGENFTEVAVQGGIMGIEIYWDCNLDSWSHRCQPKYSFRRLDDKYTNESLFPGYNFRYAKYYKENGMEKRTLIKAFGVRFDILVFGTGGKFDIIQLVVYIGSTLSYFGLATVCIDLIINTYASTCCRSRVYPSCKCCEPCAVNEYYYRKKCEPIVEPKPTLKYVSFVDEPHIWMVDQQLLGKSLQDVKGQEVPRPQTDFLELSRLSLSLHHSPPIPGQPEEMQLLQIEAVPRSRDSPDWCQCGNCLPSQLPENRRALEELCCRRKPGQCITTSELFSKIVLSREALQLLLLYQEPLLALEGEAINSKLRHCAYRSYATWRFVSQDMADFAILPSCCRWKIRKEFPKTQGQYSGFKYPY
# [3] = molecular target: Voltage-gated inwardly rectifying potassium channel KCNH2 (Homo sapiens, UniProt Q12809); test: Activity at human ERG
# Chain of Voltage-gated inwardly rectifying potassium channel KCNH2 (Q12809 whole entry): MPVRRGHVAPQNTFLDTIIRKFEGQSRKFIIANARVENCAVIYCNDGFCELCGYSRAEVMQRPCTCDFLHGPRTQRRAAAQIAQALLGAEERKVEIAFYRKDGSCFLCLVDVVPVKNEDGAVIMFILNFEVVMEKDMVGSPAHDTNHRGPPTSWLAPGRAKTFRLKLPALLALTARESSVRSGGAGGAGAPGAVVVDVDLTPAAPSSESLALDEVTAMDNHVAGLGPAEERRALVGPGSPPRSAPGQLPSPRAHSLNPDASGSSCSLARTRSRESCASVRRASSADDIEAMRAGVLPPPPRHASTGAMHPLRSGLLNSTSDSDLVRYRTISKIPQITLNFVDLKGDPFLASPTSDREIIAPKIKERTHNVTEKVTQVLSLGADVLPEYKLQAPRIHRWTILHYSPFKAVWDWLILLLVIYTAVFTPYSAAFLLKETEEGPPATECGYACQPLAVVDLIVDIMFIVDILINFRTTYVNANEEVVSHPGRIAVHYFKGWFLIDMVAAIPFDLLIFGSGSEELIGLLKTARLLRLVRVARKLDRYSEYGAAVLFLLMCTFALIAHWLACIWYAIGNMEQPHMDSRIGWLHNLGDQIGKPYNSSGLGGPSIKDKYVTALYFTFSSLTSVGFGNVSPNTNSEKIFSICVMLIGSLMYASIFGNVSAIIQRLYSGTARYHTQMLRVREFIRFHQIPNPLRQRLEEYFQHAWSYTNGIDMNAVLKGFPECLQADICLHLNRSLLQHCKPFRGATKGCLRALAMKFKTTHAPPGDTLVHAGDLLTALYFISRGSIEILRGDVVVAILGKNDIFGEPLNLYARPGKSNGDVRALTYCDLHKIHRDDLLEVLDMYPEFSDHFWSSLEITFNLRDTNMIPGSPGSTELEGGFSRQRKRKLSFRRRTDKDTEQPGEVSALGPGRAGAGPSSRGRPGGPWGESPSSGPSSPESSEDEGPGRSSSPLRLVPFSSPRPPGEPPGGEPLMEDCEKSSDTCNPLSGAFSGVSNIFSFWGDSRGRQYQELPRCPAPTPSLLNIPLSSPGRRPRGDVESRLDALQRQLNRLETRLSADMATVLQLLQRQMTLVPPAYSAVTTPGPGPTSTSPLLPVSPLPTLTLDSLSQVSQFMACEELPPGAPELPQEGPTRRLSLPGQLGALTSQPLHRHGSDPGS
# [4] = AUC in mouse plasma at 5 mg/kg, po; type: ADME, organism-based
# [5] = Protein binding in mouse brain assessed as unbound fraction at 5 mg/kg, po; type: ADME, organism-based
# [6] = system: MDR; test: Apparent permeability across apical to basolateral side in MDCK cells expressing MDR; type: ADME, cell-based, Canis lupus familiaris; conditions: dog, MDCK-MDR1
# [7] = Dose normalized AUC in mouse at 0.2 mg/kg, iv; type: ADME, organism-based; conditions: in vivo
# [8] = Protein binding in rat plasma assessed as unbound fraction; type: ADME, cell-free
# [9] = Dose normalized Cmax in mouse at 0.5 mg/kg, po; type: ADME, organism-based; conditions: in vivo
# [10] = Clearance in mouse at 0.2 mg/kg, iv or 0.5 mg/kg, po; type: ADME, organism-based; conditions: in vivo
# [11] = Terminal half life in mouse at 0.2 mg/kg, iv or 0.5 mg/kg, po; type: ADME, organism-based; conditions: in vivo, read-out: beta t1/2 (converted)
# [12] = molecular target: T2, P2X purinoceptor 7 (Homo sapiens, UniProt Q99572); test: Antagonist activity at P2X7R in LPS-stimulated human THP1 cells assessed as inhibition of BzATP-induced IL-1beta release preincubated for 30 mins followed by BzATP stimulation and measured after 30 mins by sandwich ELISA
# T2 sequence (Q99572 whole entry): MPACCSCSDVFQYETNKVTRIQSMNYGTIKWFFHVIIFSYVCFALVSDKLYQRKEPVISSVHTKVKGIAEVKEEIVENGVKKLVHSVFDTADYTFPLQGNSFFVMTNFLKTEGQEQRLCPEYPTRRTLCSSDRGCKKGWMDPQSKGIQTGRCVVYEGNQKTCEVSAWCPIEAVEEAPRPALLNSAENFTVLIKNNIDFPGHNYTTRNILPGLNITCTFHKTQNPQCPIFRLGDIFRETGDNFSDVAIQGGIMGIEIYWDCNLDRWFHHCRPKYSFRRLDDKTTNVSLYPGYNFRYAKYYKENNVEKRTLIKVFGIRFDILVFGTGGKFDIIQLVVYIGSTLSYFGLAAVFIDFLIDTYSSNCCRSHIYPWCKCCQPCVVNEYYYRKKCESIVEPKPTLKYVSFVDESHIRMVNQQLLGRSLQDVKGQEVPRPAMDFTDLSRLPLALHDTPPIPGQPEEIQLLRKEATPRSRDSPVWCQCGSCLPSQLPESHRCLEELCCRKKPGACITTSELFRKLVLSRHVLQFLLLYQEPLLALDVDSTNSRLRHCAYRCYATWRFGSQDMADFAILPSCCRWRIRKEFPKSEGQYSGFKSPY
# [13] = system: MDR; test: Efflux ratio of apparent permeability in MDCK cells expressing MDR; type: ADME, cell-based, Canis lupus familiaris; conditions: dog, MDCK-MDR1
# [14] = Volume of distribution in mouse at 0.2 mg/kg, iv or 0.5 mg/kg, po; type: ADME, organism-based; conditions: in vivo
# [15] = Dose normalized Cmax in mouse at 0.2 mg/kg, iv; type: ADME, organism-based; conditions: in vivo
# [16] = Protein binding in human plasma; type: ADME, cell-free; conditions: read-out: PPB
# [17] = AUC in mouse brain at 5 mg/kg, po; type: ADME, organism-based
# [18] = Intrinsic clearance in human liver microsomes; type: ADME, Microsome; conditions: read-out: CLH
# [19] = molecular target: T3, P2X purinoceptor 7 (Mus musculus, UniProt Q9Z1M0); test: Antagonist activity at mouse P2X7 receptor assessed as inhibition of BzATP-induced YO PRO dye uptake preincubated for 20 mins followed by YO PRO dye and BzATP addition measured after 30 mins by fluorescence assay
# T3 sequence (Q9Z1M0 whole entry): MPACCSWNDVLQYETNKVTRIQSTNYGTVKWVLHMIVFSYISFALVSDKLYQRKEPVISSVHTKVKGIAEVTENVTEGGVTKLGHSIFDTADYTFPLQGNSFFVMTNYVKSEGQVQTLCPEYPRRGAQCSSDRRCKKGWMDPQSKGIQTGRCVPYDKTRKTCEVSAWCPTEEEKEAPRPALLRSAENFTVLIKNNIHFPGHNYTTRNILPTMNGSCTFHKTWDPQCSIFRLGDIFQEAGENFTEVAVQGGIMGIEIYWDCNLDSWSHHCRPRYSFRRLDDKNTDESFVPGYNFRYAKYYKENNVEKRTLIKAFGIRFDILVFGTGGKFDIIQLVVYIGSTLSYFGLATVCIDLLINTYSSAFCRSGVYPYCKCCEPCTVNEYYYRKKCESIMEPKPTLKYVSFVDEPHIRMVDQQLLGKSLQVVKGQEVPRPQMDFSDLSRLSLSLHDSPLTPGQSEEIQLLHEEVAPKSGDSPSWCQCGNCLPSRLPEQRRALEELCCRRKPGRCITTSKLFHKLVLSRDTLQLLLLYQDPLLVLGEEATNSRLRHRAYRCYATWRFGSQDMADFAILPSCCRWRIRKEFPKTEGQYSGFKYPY
# [20] = Protein binding in rat plasma; type: ADME, cell-free; conditions: read-out: PPB
# [21] = Protein binding in mouse plasma assessed as unbound fraction; type: ADME, cell-free
# [22] = Oral bioavailability in mouse at 0.5 mg/kg; type: ADME, organism-based; conditions: in vivo
# [23] = Protein binding in human plasma assessed as unbound fraction; type: ADME, cell-free
# [24] = Dose normalized AUC in mouse at 0.5 mg/kg, po; type: ADME, organism-based; conditions: in vivo
# [25] = Unbound brain to plasma concentration ratio in mouse at 5 mg/kg, po; type: ADME, organism-based; conditions: read-out: K(p,uu,brain)
# [26] = Intrinsic clearance in rat liver microsomes; type: ADME, Microsome; conditions: read-out: CLH
# [27] = Intrinsic clearance in mouse liver microsomes; type: ADME, Microsome; conditions: read-out: CLH
# [28] = Protein binding in mouse plasma assessed as unbound fraction at 5 mg/kg, po; type: ADME, organism-based
# [29] = molecular target: T2, P2X purinoceptor 7; test: Antagonist activity at human P2X7 receptor expressed in HEK293 cells assessed as inhibition of BzATP-induced YO PRO dye uptake preincubated for 20 mins followed by YO PRO dye and BzATP addition measured after 30 mins by fluorescence assay; type: cell-based
compound,measurement,setting,value
O=C(NCC1(O)CCCC(F)(F)C1)c1c(Cl)ccc2nc(N3CC[C@H](F)C3)ccc12 (some centres undefined),fraction unbound,[1],0.03 to 0.1
same,IC50,[2],9.4 µM
same,Activity,[3],> 30 µM
same,AUC,[4],136 ng·h/mL
same,fraction unbound,[5],0.11
same,Papp A→B,[6],8.9 to 9 ×10⁻⁶ cm/s
same,AUC/dose,[7],451 ng·h/mL
same,fraction unbound,[8],0.089
same,Cmax/dose,[9],160 ng/mL
same,clearance,[10],36.8 mL/min/kg
same,half-life,[11],25.8 min
same,IC50,[12],0.0267 µM
same,efflux ratio,[13],6.3
same,Vd,[14],1.19 L/kg
same,Cmax/dose,[15],738 ng/mL
same,fraction unbound,[16],0.03 to 0.1
same,AUC,[17],12.6 ng·h/mL
same,microsomal CLint,[18],20 µL/min/mg
same,IC50,[19],6.73 µM
same,fraction unbound,[20],0.03 to 0.1
same,fraction unbound,[21],0.079
same,bioavailability,[22],32%
same,fraction unbound,[23],0.098
same,AUC/dose,[24],143 ng·h/mL
same,Kp uu,[25],0.13
same,microsomal CLint,[26],23 µL/min/mg
same,microsomal CLint,[27],34 µL/min/mg
same,fraction unbound,[28],0.079
same,IC50,[29],0.018 µM
